According to PubChem BioAssay AID179 (DTP/NCI, 2004):
Calls of active or inactive are those of the source.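 Rule for the calls: active = compounds giving half or more protection of infected cells from virus-caused growth loss, again on retest; inactive = the rest.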

System: CEM cells HIV-1 protection, formazan growth assay
Assay: NCI AIDS Antiviral Assay
Settings: for IC50: measured here: growth of uninfected CEM cells
How it was run: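 Protection of CEM cells against HIV-1 was scored from cell growth (soluble formazan) across five concentrations, with parallel uninfected cells. Lack of protection may reflect toxicity.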

| SMILES | EC50 [µM] | IC50 [µM] | outcome |
| --- | --- | --- | --- |
| CC(C)=CCC/C(C)=C/CCC(C)/C=C/C(=O)NC[C@@H]1CC[N@+]2(C)CCCC[C@H]12 (stereo partly specified) | > 501 | 23.4 | – |
| Brc1ccc(C[N+]23CCN(CC2)CC3)cc1 | > 692 | > 692 | – |
| O=P1(N2CCOCC2)OCCO1 | > 200 | > 200 | – |
| CC12CC(C/C1=N/O)C(C)(C)C2 (stereo unspecified) | > 1480 | > 1480 | – |
| COC1CC(n2ccc(=O)[nH]c2=O)OC1CO (stereo unspecified) | > 200 | > 200 | – |
| O=C(O)CP(=S)(S)c1ccccc1 (stereo unspecified) | > 5620 | > 5620 | – |
| Cc1ccc(N=Nc2cc(=O)[nH]c(=O)[nH]2)cc1C | > 200 | 3.98 | – |
| COP(=O)(OC)/C(=C\c1cn(C(c2ccccc2)(c2ccccc2)c2ccccc2)cn1)NC(C)=O | > 200 | 83.2 | – |
| C/C(CC(O)(/C=N/O)c1ccccc1)=N/O (stereo unspecified) | > 200 | > 200 | – |
| O=C(O)c1ccc(CSc2ccc([N+](=O)[O-])cc2)cc1 | > 89.1 | 72.4 | – |
| CCOC(=O)C(=Cc1ccc(Oc2ccccc2)cc1)C(=O)OCC | > 11.2 | > 11.2 | – |
| C1C2CC3CC1CC(c1nn4c(C56CC7CC(CC(C7)C5)C6)nnc4s1)(C2)C3 | > 200 | > 200 | – |
| N#Cc1cccc(C[P+](c2ccccc2)(c2ccccc2)c2ccccc2)c1 | > 200 | 135 | – |
| Oc1cc2c3c(c1)CCCN3CCC2 | > 200 | 195 | – |
| Cc1ccnc2c1c(=O)c1ccccc1n2C | > 151 | 41.7 | – |
| CC(=O)N1C(C(=O)NNc2ccccc2)CSC1c1ccccc1 (stereo unspecified) | > 200 | 12.3 | – |
| Cn1c(=O)[nH]c(N2CCOCC2)c(C#N)c1=S | > 200 | > 200 | – |
| CN(C)C(=S)N/N=C(\C(=N/NC(=S)N(C)C)c1ccccn1)c1ccccn1 | > 20 | 1.1 | – |
| O=C1[C@@H]2C(c3ccccc3[N+](=O)[O-])=[N+](c3ccccc3)O[C@@H]2C(=O)N1c1ccc(Cc2ccc(N3C(=O)[C@H]4C(c5ccccc5[N+](=O)[O-])=[N+](c5ccccc5)O[C@H]4C3=O)cc2)cc1 | > 8.51 | > 8.51 | – |
| C[Si](C)(C)OC1(C#N)C2C3CC4C2C(=O)C2C4C3C21 (stereo unspecified) | – | – | inactive |
| C=C(C)C(C(=O)OC(c1ccccc1)c1ccccc1)N1C(=O)C(NC(=O)COc2ccccc2)C1SSc1nc2ccccc2s1 (stereo unspecified) | > 200 | 8.32 | – |

| SMILES | EC50 [µM] | IC50 [µM] | outcome |
| --- | --- | --- | --- |
| O=Cc1cc(O)c(O)c(O)c1-c1c(C=O)cc(O)c(O)c1O | > 174 | 34.7 | – |
| COc1cc2cc3c4cc(OC)c(OC)cc4cc[n+]3c(C)c2cc1OC (tested in a mixture with another compound) | > 93.3 | 4.17 | – |
| COc1c2occc2cc2ccc(=O)oc12 | > 83.2 | > 83.2 | – |
| CSC1=Nc2ccccc2N=C(c2ccccc2)C1 | > 26.9 | > 26.9 | – |
| C/C(=N\NC(C)(C)C)c1sc(-c2nc(C)c(/C(C)=N/NC(C)(C)C)s2)nc1C | > 44.7 | > 44.7 | – |
| COC(=O)NCC(OC(=O)c1cc2c(cc1I)OCO2)C1=CCCCC1 (stereo unspecified) | > 28.8 | > 28.8 | – |
| S=C(NNC1=NCCCCN1)Nc1ccccc1 | > 200 | 112 | – |
| COc1cccc(/C=C2\S/C(=N/Nc3nc(-c4ccc([N+](=O)[O-])cc4)cs3)NC2=O)c1O | > 200 | 29.5 | – |
| Nc1c(C(=O)N/N=C/c2ccccc2)sc(=S)n1-c1ccccc1 | > 4.07 | > 4.07 | – |
| COc1ccc(-c2nnc(-c3nsc4ccccc34)o2)cc1 | > 17 | > 17 | – |
| CCOC(=O)/C(=C\c1ccoc1)P(=O)(OCC)OCC | > 832 | 30.9 | – |
| Nc1ccc(/C=C\C2(CCl)OCCO2)cc1 | > 100 | > 100 | – |
| Cc1nsc2cc(Cl)n(C)c(=O)c12 | > 6.76 | > 6.76 | – |
| N=S(=O)(c1ccccc1)c1ccccc1 | – | – | inactive |
| CN(C)C=Nc1c(Br)cc(Br)c2nonc12 | > 200 | > 200 | – |
| CC12CCCCC1CC(=O)/C(=C\O)C2 (stereo unspecified) | > 200 | 77.6 | – |
| CCOP(=O)(OCC)/C(C#N)=C/c1ccc(CO)o1 | > 871 | 178 | – |
| O=c1n(-c2ccccc2)c(=O)n2c(-c3ccccc3)c(-c3ccccc3)n12 | > 200 | 30.9 | – |
| CC(C)(C)[Si](C)(C)OCC1OC(n2ccc(=O)[nH]c2=O)C(O[Si](C)(C)C(C)(C)C)[C@@]12N[C@H](C(N)=O)CS2=O (stereo partly specified) | > 200 | 12.3 | – |
| CC1N=C(SCc2ccc(Cl)cc2)N2C(C)N=C(SCc3ccc(Cl)cc3)N12 (stereo unspecified) | > 21.9 | > 21.9 | – |
| Cc1cc(Cc2cc(C)c(NC(=O)C(=O)C3C(=O)NC(=S)NC3=O)c(C(C)C)c2)cc(C(C)C)c1NC(=O)C(=O)C1C(=O)NC(=S)NC1=O | – | – | inactive |
